Calls of active or inactive are those of the source. The calls are words filed in the database; no cut-off is given here.
Legend:
[1] = Octanol-water partition coefficient, log K of the compound by reversed-phase HPLC; type: physicochemical; details: read-out: log K
Oryza sativa = test: Phytotoxicity in Oryza sativa (rice) seedlings assessed as assessed as inhibition of root growth at 100 ppm at 26 degC for 72 hr; type: functional, organism-based
Lolium multiflorum = test: Phytotoxicity against Lolium multiflorum (Italian ryegrass) seedlings assessed as inhibition of root growth at 100 ppm at 26 degC for 72 hr; type: functional, organism-based

| SMILES | logP [1] | inhibition (Oryza sativa) | inhibition (Lolium multiflorum) |
| --- | --- | --- | --- |
| CC[C@H](C)[C@@H](O)[C@@H](C)C1=C(CC(C)=O)C(=O)C2=C(O[C@]3(C)CC[C@H]4O[C@@H](C(C)(C)O)CC[C@]4(C)[C@H]3[C@@H]2O)[C@]1(O)OC [COCHLIOQUINOL III] | 0.31 | Active | Active |
| CC[C@H](C)[C@@H](O)[C@@H](C)C1=CC(=O)C2=C(O[C@]3(C)CC[C@H]4O[C@@H](C(C)(C)O)CC[C@]4(C)[C@H]3[C@@H]2O)[C@]1(O)CC(C)=O [COCHLIOQUINOL II] | -0.05 | Active | Active |
| CC[C@H](C)C(=O)[C@@H](C)C1=CC(=O)C2=C(O[C@]3(C)CC[C@H]4O[C@@H](C(C)(C)O)CC[C@]4(C)[C@H]3[C@@H]2O)[C@]1(O)CC(C)=O [COCHLIOQUINOL] | -0.238 | Active | Active |
| CC[C@H](C)[C@@H](OC(C)=O)[C@@H](C)C1=CC(=O)C2=C(O[C@]3(C)CC[C@H]4O[C@@H](C(C)(C)O)CC[C@]4(C)[C@H]3[C@@H]2O)C1=O [COCHLIOQUINONE A] | 0.337 | Active | Active |
| CC[C@H](C)C(=O)[C@@H](C)C1=CC(=O)C2=C(O[C@]3(C)CC[C@H]4O[C@@H](C(C)(C)O)CC[C@]4(C)[C@H]3C2)C1=O [COCHLIOQUINONE B] | 0.437 | Active | Active |
| CC[C@H](C)C(=O)[C@@H](C)C1=CC(=O)C2=C(O[C@]3(C)CC[C@H]4O[C@@H](C(C)(C)O)CC[C@]4(C)[C@H]3[C@@H]2O)C1=O [COCHLIOQUINONE C] | 0.091 | Active | Active |
| C/C=C(\C)C(=O)[C@@H](C)C1=CC(=O)C2=C(O[C@]3(C)CC[C@H]4O[C@@H](C(C)(C)O)CC[C@]4(C)[C@H]3C2)C1=O [COCHLIOQUINONE D] | 0.287 | Active | Active |
| CC[C@H](C)C(=O)[C@@H](C)C1=CC(=O)C2=C(O[C@]3(C)CC[C@H]4O[C@@H](C(C)(C)O)C[C@H](O)[C@]4(C)[C@H]3C2)C1=O [COCHLIOQUINONE E] | 0.013 | Active | Active |
| CC[C@H](C)[C@@H](OC(C)=O)[C@@H](C)c1cc(O)c2c(c1O)O[C@]1(C)CC[C@H]3O[C@@H](C(C)(C)O)CC[C@]3(C)[C@H]1C2=O [ISOCOCHLIOQUINONE A] | 0.699 | Active | Active |
| CC[C@H](C)C(=O)[C@@H](C)c1cc(O)c2c(c1O)O[C@]1(C)CC[C@H]3O[C@@H](C(C)(C)O)CC[C@]3(C)[C@H]1C2=O [ISOCOCHLIOQUINONE C] | 0.482 | Active | Active |
| C/C=C(\C)[C@@H](OC(C)=O)[C@@H](C)C1=CC(=O)C2=C(O[C@]3(C)CC[C@H]4O[C@@H](C(C)(C)O)CC[C@]4(C)[C@H]3[C@@H]2O)C1=O [STEMPHONE] | 0.224 | Active | Active |

Reference: ChEMBL document CHEMBL3045056, “Structures and Biological Activities of Phytotoxins Produced by the Plant Pathogenic Fungus Bipolaris cynodontis cynA” (J Pestic Sci, 1998)
